The test system of experiment [1] is complete Freund's adjuvant (CFA)-induced chronic arthritis. The experiment can be described thus: CFA arthritis rats, paw volume (plethysmometer). It is filed as in vivo, rat. As to conditions: for change of paw volume compared to vehicle-treated arthritic group: E3 1 mg/kg or 911 10 mg/kg i.v. D14+D19, indomethacin 3 mg/kg/day p.o.; for paw volume (mean of right and left hindpaw): arthritic rats. On the procedure: Five groups of 10 animals (5-weeks old male Lewis rats-LEWIS Lew/Ico, from Charles River Laboratories—Belgium) each were included in this study: Group 1: non arthritic rats/saline (vehicle), i.v. bolus, n=10; Group 2: arthritic rats/saline (vehicle), i.v. bolus, n=10; Group 3: arthritic rats/Indomethacin 3 mg/kg, p.o daily over 10 days, n=10; […]; Group 5: arthritic rats/911, 10 mg/kg, i.v. bolus, n=10. The doses were expressed in terms of free active substance (mg/kg). E3 and 911 were extemporaneously prepared in saline from the stock solution to the desired concentration. […]. All diluted solutions (before i.v. injection) were sterilized using a sterile filter unit of 0.20.μm. pH and osmolarity values of diluted solutions were measured before each i.v. injection. Before the first i.v., osmolarity (mosm/L) for saline, E3, and 911 were 278, 269, and 308 respectively; pH for saline, E3, and 911 were 5.93, 6.76, 6.71 respectively. Before the second i.v., osmolarity (mosm/L) for saline, E3, and 911 were 280, 270, and 309 respectively; pH for saline, E3, and 911 were 5.86, 6.72, and 6.59 respectively.
E3 or 911 or saline were administered by i.v. bolus injection on Day 14 and Day 19 after arthritis induction in a coded and random order with a volume of 5 mL/kg. The non arthritic group was given by i.v. bolus injection of saline on Day 14 and Day 19 with a volume of 5 mL/kg. Indomethacin was extemporaneously prepared in 1% methylcellulose. Indomethacin was administered by oral route (p.o.) once daily over 10 days from Day 14 to Day 23 after arthritis induction in a coded and random order with a volume of 10 mL/kg.
The right and left hindpaw volume of each rat (arthritic and non arthritic rats) was measured using a plethysmometer. The measurements were performed at the following times (after induction of arthritis): Day 14 (before i.v. bolus or p.o. administration); and Day 24 (5 days after the last i.v. bolus injection or 24 h after the last p.o. administration). All measurements were performed between 9:00 and 12:00 am. All the data were collected and stored by the WinDas software.
All results were reported as Mean ±S.E.M. of 10 rats in each group at each time point. Paw volume was expressed in ml calculated from the mean value of the right and left paw volume. Arthritis index was calculated from the sum of the score obtained for each of the 4 paws. The nociceptive response was evaluated by the intensity of the level of vocalization recorded for each animal (mean of 4 values: 2 times/paw) in mV. The percentage inhibition of the nociceptive response was calculated from the mean value of the vehicle-treated arthritic group [(mean value of vehicle-treated arthritic group−mean value of treated arthritic group/mean value of vehicle-treated arthritic group)*100]. Body weight was expressed in grams. Hindpaws (left and right) weight was expressed in grams. Cytokine levels (IL-6, IL-1β, TNF-α and TGF-β1) of each hind paw was expressed in pg/ml. Circulating levels of TGF-β1 was expressed in pg/ml. Radiological index for each parameter (demineralization, erosions, periostal reaction, soft tissue damage, space joint, osteogenesis deformity) and total radiological index (total score) were calculated from the sum of the scores obtained for each parameter. The inter-group significances of the deviations between the values of vehicle-treated group (arthritic rats) and vehicle-treated group (non arthritic rats) were assessed by the Student t test or Mann-Whitney Rank Sum Test when equal variance or normality test failed. The inter-group significances of the deviations between the values of vehicle-treated group (arthritic rats) and E3- and 911- and Indomethacin-treated groups were assessed by the 1-way analysis of variance ANOVA followed by the non-paired Dunnett t test. A probability of P<0.05 was considered as significant. All statistical analysis was performed by the Sigmastat™ software.

In the next experiment the test system is TGF-β1. The experiment can be described thus: CFA arthritis rats, circulating TGF-β1 in serum (ELISA). To be noted: D24; for serum TGF-β1 level: arthritic rats, E3 1 mg/kg or 911 10 mg/kg i.v. D14+D19, indomethacin 3 mg/kg p.o. It is filed as in vivo, rat. On the procedure: On Day 24 (after paw volume and arthritis index measurements and test vocalization), under general anaesthesia using isoflurane (in a mixture of oxygen and nitrous oxide), the blood samples (about 800-1000 μl) was collected by capillary action with a micropipette from retroorbital sinus.
Measurement of circulating TGF-β1 (groups 1-2-3-4-5): A part of blood sample was collected in micro tubes for serum preparation at ambient temperature. Following sample collection, blood was mixed and allowed to clot for 30 minutes prior to the centrifugation. The tubes were centrifuged at about 6000 g for 3 minutes. Each serum sample (at least 100 μL, except for rat #52 and #53) was aliquoted and stored at −20° C. until sample activation for TGF-β1 analysis. These aliquots (50 vials) were kept for a period of 6 months starting from the end of the study. […] TGF-β1 levels were measured using human TGF-β1 ELISA kit (ref. DB100, Batch 212258 and 213610, R&D Systems—France).
All results were reported as Mean ±S.E.M. of 10 rats in each group at each time point. Paw volume was expressed in ml calculated from the mean value of the right and left paw volume. Arthritis index was calculated from the sum of the score obtained for each of the 4 paws. The nociceptive response was evaluated by the intensity of the level of vocalization recorded for each animal (mean of 4 values: 2 times/paw) in mV. The percentage inhibition of the nociceptive response was calculated from the mean value of the vehicle-treated arthritic group [(mean value of vehicle-treated arthritic group−mean value of treated arthritic group/mean value of vehicle-treated arthritic group)*100]. […] Radiological index for each parameter (demineralization, erosions, periostal reaction, soft tissue damage, space joint, osteogenesis deformity) and total radiological index (total score) were calculated from the sum of the scores obtained for each parameter. […]
(ELISA stands for enzyme-linked immunosorbent assay.)

The mark [2] stands for this setting: E3 1 mg/kg or 911 10 mg/kg i.v. D14+D19, indomethacin 3 mg/kg/day p.o. 10 days, D24.

The record followed here is US20080182978A1, “ANTI-NGF ANTIBODIES AND METHODS USING SAME” (RINAT NEUROSCIENCE CORP, priority 2002, published 2008).

Turning to `COc1ccc2c(c1)c(CC(=O)O)c(C)n2C(=O)c1ccc(Cl)cc1` [Indomethacin, reference compound], the “change of paw volume compared to vehicle-treated arthritic group” value in experiment [1] (D24) is given as “about −0.75 mL”. In addition, the “paw volume (mean of right and left hindpaw)” value in experiment [1] (D14 (before dosing)) was found to be 2.08 ± 0.06 mL; in experiment [1] (setting [2]), 1.59 ± 0.03 mL. In addition, the “serum TGF-β1 level” value with TGF-β1 was determined as 57222.2 ± 3194.1 pg/mL. The “decrease of serum TGF-β1 level compared to vehicle-treated arthritic group” value in the experiment with TGF-β1 (indomethacin 3 mg/kg/day p.o. 10 days) was “about 1.5 times”.

B1: E3: humanized, affinity matured anti-NGF antagonist antibody; variable regions SEQ ID NO:1 and 2; human IgG2a (A330P331 to S330S331), kappa (antibody, V domains shown)
VH: QVQLQESGPGLVKPSETLSLTCTVSGFSLIGYDLNWIRQPPGKGLEWIGIIWGDGTTDYNSAVKSRVTISKDTSKNQFSLKLSSVTAADTAVYYCARGGYWYATSYYFDYWGQGTLVTVS
VL: DIQMTQSPSSLSASVGDRVTITCRASQSISNNLNWYQQKPGKAPKLLIYYTSRFHSGVPSRFSGSGSGTDFTFTISSLQPEDIATYYCQQEHTLPYTFGQGTKLEIKRT
modifications: human IgG2a constant (A330S/P331S) and kappa constant missing
Turning to B1, the “change of paw volume compared to vehicle-treated arthritic group” value in experiment [1] (D24) is listed as “about 0.37 mL”. Besides, the “paw volume (mean of right and left hindpaw)” value came to 2.06 ± 0.03 mL in experiment [1] (D14 (before dosing)) and 2.71 ± 0.09 mL in experiment [1] (setting [2]). Moreover, in the experiment on TGF-β1, the “serum TGF-β1 level” value was 69408.8 ± 3926.7 pg/mL.
